Measured values taken from US8835428B2, “Diacylglycerol acyltransferase inhibitors” (Piramal Enterprises Limited, priority 2008, dated 2014).

Molecular target: T1, hDGAT1 (Homo sapiens, UniProt O75907)
T1 construct: host or cells: Sf9 insect cells (baculovirus); microsomal preparation
T1 sequence (O75907 1-488): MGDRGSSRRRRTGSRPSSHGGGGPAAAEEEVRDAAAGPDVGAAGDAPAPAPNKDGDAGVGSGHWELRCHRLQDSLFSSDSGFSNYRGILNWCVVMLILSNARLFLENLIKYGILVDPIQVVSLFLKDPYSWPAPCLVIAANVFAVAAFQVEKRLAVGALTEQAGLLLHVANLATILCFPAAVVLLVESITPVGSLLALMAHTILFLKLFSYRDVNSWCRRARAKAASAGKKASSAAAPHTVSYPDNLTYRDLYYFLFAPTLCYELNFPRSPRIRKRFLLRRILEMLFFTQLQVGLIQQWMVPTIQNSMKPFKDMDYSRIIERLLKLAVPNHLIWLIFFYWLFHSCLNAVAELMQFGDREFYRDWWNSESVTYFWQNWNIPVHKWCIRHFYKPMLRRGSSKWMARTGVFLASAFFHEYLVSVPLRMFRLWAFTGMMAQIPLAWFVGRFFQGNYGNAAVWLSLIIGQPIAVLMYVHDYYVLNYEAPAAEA
Experiment: In-vitro DGAT1 assay (hDGAT1 microsomes from Sf9 cells, 14C oleoyl CoA, triglyceride formation)
Type: biochemical
Experimental: In-vitro Protocol for DGAT1 Assay
Sf9 Culture and Treatment
Sf9 cells were grown in T25 flasks containing Graces's Insect media with 10% FBS with antibiotic (100 units/mL penicillin, 100 μg/mL streptomycin sulphate, 0.25 μg/mL Amptotericin B as Fungizone) grown in a 27° C. incubator:
hDGAT1ORF expression clone (RZPDo839C09146 in pDEST vector) was obtained from RZPD, Germany. hDGAT1 bacmid DNA was obtained by transformation of the hDGAT expression clone into DH10Bac E. coli competent cells. Approximately 1 μg of hDGAT1 bacmid DNA was infected into Sf9 cells with Cellfectin (Invitrogen) reagent. Following infection, Sf9 cells were incubated at 27° C. for 30 minutes. Five hours after infection, the media was replaced with growth media containing antibiotic (100 units/mL penicillin, 100 μg/mL streptomycin sulphate, 0.25 μg/mL Amptotericin B as Fungizone) and incubated at 27° C. for 72 hours. The supernatant containing the virus was centrifuged at 1500×g for 5 minutes, passed through 0.22 μm filter, and subsequently stored at 4° C. The virus was further amplified three more times by re-infection of Sf9 cells and the viral titer was determined by plaque assay.
Preparation of DGAT1 Microsomes from Sf9 Cells
Sf9 cells were seeded in spinner flasks on day 0 at a cell density of 1×10^6 and infected on day 1 with hDGAT1 baculovirus at a multiplicity of infection (MOI) of 5 and a cell density of 2×10^6. On day 3 (or 66-72 hours), cells were harvested and centrifuged at 2500×g for 10 minutes. Pellet was resuspended in lysis buffer (100 mM sucrose, 50 mM KCl, 40 mM KH2PO4, 30 mM EDTA, pH 7.2) and passed through 21-gauge needle approximately 10 times. The mixture was centrifuged at 12,000 rpm in a Sigma 12158-H rotor at 4° C. for 30 minutes. The supernatant was subjected to centrifugation at 35,000 rpm in a Beckman Ti-45 rotor at 4° C. for 1 hour. The resultant pellet containing the microsomes were resuspended overnight in 1 mL of lysis buffer and total protein concentration was estimated using Bradford Reagent. Microsomes were aliquoted and stored at −20° C.
Measurement of DGAT1 Activity
Frozen aliquots of hDGAT1 containing microsomes were thawed (5-10 mg/mL total protein) on ice and diluted to a working stock of 1 mg/mL with DGAT Assay Buffer (DAB). The DGAT reaction assay was performed by following the procedure described in U.S. Pat. No. 6,607,893 with some modifications that are described below.
Preparation of DGAT1 substrate mixture: 1 mL stock solution of DGAT1 substrate mixture contains (i) 5.6 μL of ^14C oleoyl CoA (16.8 nCi) and 35 μL 1,2-dioleoyl-sn-glycerol (409.5 μM) or (ii) 5.6 μL of ^14C oleoyl CoA (16.8 nCi) and 105 μL 1,2-dioleoyl-sn-glycerol (1228.5 μM) or (iii) 5.6 μL of ^14C oleoyl CoA (16.8 nCi) and 140 μL 1,2-dioleoyl-sn-glycerol (1638 μM).
1,2-sn-dioleoylglycerol substrate concentration in the 1 mL stock solution of DGAT1 substrate mixture was varied depending on the microsome concentration used in the assay reaction. 1,2-dioleoyl-sn-glycerol stock (19.5 mM) was prepared by dissolving 25 mg of 1,2-dioleoyl-sn-glycerol (Sigma, US) in 2060 μL of acetone. The assay was performed in duplicates in a reaction volume of 100 μL. The reaction volume consisted of: • (i) 27.5 μL of DGAT assay buffer (0.25M Sucrose, 1 mM EDTA (pH 8.0), 150 mM Tris-HCl, pH 7.4, 1.25 mg/mL, fatty acid free BSA), • (ii) 10 μL of compound, of present invention or standard (dissolved in DMSO and diluted to 10× with DAB and screened at 10 μM, 5 μM and 1 μM), • (iii) 60 μL DGAT1 substrate mixture taken from a 1 mL stock (16.8 nCi of ^14C oleoyl CoA and 409.5 μM or 1228.5 μM or 1638 μM of 1,2-dioleyl-sn-glycerol), • (iv) 2.5-10 μL of 1 mg/mL of microsomes (the amount of assay buffer was varied depending upon the concentration of microsome to make up the volume to 100 μL). Procedure:
The reaction was started by the addition of 2.5-10 μL of 1 mg/mL of microsomes (iv) to a mixture of (i), (ii) and (iii), vortexed and incubated at 37° C. for 10 minutes. […]

Row | SMILES | inhibition at 10 µM | also measured
1 | COC(=O)C(C)(C)NC(=O)c1cc(-c2ccc(NC(=O)Nc3ccc(F)cc3)cc2)no1 [Example 117, Methyl 2-(3-(4-(3-(4-fluorophenyl)ureido)phenyl)isoxazole-5-carboxamido)-2-methylpropanoate] | 50 to 75% | 
2 | CC(C)C[C@H](NC(=NO)c1cc(-c2ccc(Nc3nc4ccc(F)cc4s3)cc2)no1)C(=O)O [Example 51, (S)-2-({3-[4-(6-Fluoro-benzothiazol-2-ylamino)-phenyl]-N-hydroxy-isoxazole-5-carboximidoyl}-amino)-4-methyl-pentanoic acid] | 0 to 50% | 
3 | O=C(O)C1(NC(=NO)c2cc(-c3ccc(Nc4nc5ccc(F)cc5s4)cc3)no2)CCCC1 [Example 66, 1-({3-[4-(6-Fluoro-benzothiazol-2-ylamino)-phenyl]-N-hydroxy-isoxazole-5-carboximidoyl}-amino)-cyclopentanecarboxylic acid] | 0 to 50% | 
4 | COC(=O)C1(NC(=O)c2cc(-c3ccc(Nc4nc5ccc(F)cc5s4)cc3)no2)CCCC1 [Example 62, 1-({3-[4-(6-fluoro-benzothiazol-2-ylamino)-phenyl]-isoxazole-5-carbonyl}-amino)-cyclopentanecarboxylic acid methyl ester] | 0 to 50% | 
5 | COC(=O)[C@H](NC(=S)c1cc(-c2ccc(NC(=O)Nc3ccc(C)cc3)cc2)no1)C(C)C [Example 223, (R)-Methyl 3-methyl-2-(3-(4-(3-p-tolylureido)phenyl)isoxazole-5-carbothioamido)butanoate] |  | inhibition at 1 µM: 0 to 50%
6 | COC(=O)[C@@H](NC(=O)c1cc(-c2ccc(NC(=S)Nc3ccccc3F)cc2)no1)C(C)C [Example 269, (S)-methyl 2-(3-(4-(3-(2-fluorophenyl)thioureido)phenyl)isoxazole-5-carboxamido)-3-methylbutanoate] |  | inhibition at 5 µM: 0 to 50%
7 | CC(C)C(NC(=O)c1cc(-c2ccc(OCc3ccccc3)cc2)no1)C(=O)O (stereo not drawn) [Example 322, 2-(3-(4-(Benzyloxy)phenyl)isoxazole-5-carboxamido)-3-methylbutanoic acid] |  | inhibition at 1 µM: 0 to 50%
8 | CC(C)[C@H](NC(=O)c1cc(-c2ccc(NC(=O)Nc3cc(F)ccc3F)cc2)no1)C(=O)O [Example 199, (S)-2-(3-(4-(3-(2,5-Difluorophenyl)ureido)phenyl)isoxazole-5-carboxamido)-3-methylbutanoic acid] |  | inhibition at 1 µM: 75 to 100%
9 | COC(=O)[C@@H](NC(=O)c1onc(-c2ccc(NC(=O)Nc3ccccc3)cc2)c1-c1ccccc1)C(C)C [Example 88, (S)-3-Methyl-2-({4-phenyl-3-[4-(3-phenyl-ureido)-phenyl]-isoxazole-5-carbonyl}-amino)-butyric acid methyl ester] | 0 to 50% | 
10 | CC(C)[C@H](NC(=O)c1cc(-c2ccc(NC(=O)Nc3cccc(Cl)c3F)cc2)no1)C(=O)O [Example 183, (S)-2-(3-(4-(3-(3-chloro-2-fluorophenyl)ureido)phenyl)isoxazole-5-carboxamido)-3-methylbutanoic acid] |  | inhibition at 1 µM: 75 to 100%
11 | COC(=O)[C@@H](NC(=O)c1cc(-c2ccc(NC(=S)Nc3cccc(F)c3)cc2)no1)C(C)C [Example 267, (S)-methyl 2-(3-(4-(3-(3-fluorophenyl)thioureido)phenyl)isoxazole-5-carboxamido)-3-methylbutanoate] |  | inhibition at 5 µM: 0 to 50%
12 | Cc1cc(-c2cc(C(=O)NC(C)C(=O)O)on2)ccc1NC(=O)Nc1c(F)cccc1F (stereo not drawn) [Example 102, 2-(3-(4-(3-(2,6-Difluorophenyl)ureido)-3-methylphenyl)isoxazole-5-carboxamido)propanoic acid] | 0 to 50% | 
13 | COC[C@H](NC(=NO)c1cc(-c2cccc(Nc3nc4ccc(F)cc4s3)c2)no1)C(=O)OC [Example 32, (S)-2-({3-[3-(6-Fluoro-benzothiazol-2-ylamino)-phenyl]-N-hydroxy-isoxazole-5-carboximidoyl}-amino)-3-methoxy-propionic acid methyl ester] | 0 to 50% | 
14 | CC(C)C[C@H](NC(=O)c1onc(-c2ccc(Nc3nc4ccc(F)cc4s3)cc2)c1-c1ccccc1)C(=O)O [Example 95, (S)-2-({3-[4-(6-Fluoro-benzothiazol-2-ylamino)-phenyl]-4-phenyl-isoxazole-5-carbonyl}-amino)-4-methyl-pentanoic acid] | 0 to 50% | 
15 | CC(C)[C@H](NC(=O)c1cc(-c2cccc(Nc3nc4ccc(F)cc4s3)c2)no1)C(=O)O [Example 23, (S)-2-({3-[3-(6-Fluoro-benzothiazol-2-ylamino)-phenyl]-isoxazole-5-carbonyl}-amino)-3-methyl-butyric acid] | 0 to 50% | 
16 | COC(=O)[C@@H](NC(=O)c1nc(-c2ccc(NC(=S)NCc3ccccc3)cc2)no1)C(C)C [Example 356, (S)-methyl 2-(3-(4-(3-benzylthioureido)phenyl)-1,2,4-oxadiazole-5-carboxamido)-3-methylbutanoate] |  | inhibition at 5 µM: 50 to 75%
17 | CC(NC(=O)c1cc(-c2ccc(NC(=O)Nc3ccc(F)cc3)cc2)no1)C(=O)O (stereo not drawn) [Example 116, 2-(3-(4-(3-(4-fluorophenyl)ureido)phenyl)isoxazole-5-carboxamido) propanoic acid] | 75 to 100% | 
18 | CC(C)[C@H](NC(=O)c1csc(-c2ccc(NC(=O)Nc3ccc(Cl)cc3Oc3ccccc3)cc2)n1)C(=O)O [Example 365, (S)-2-(2-(4-(3-(4-chloro-2-phenoxyphenyl)ureido)phenyl)thiazole-4-carboxamido)-3-methylbutanoic acid] |  | inhibition at 1 µM: 50 to 75%
19 | COC(=O)[C@@H](NC(=NO)c1cc(-c2ccc(Nc3nc4ccc(F)cc4s3)cc2)no1)C(C)C [Example 7, (S)-2-({3-[4-(6-Fluoro-benzothiazol-2-ylamino)-phenyl]-N-hydroxy-isoxazole-5-carboximidoyl}-amino)-3-methyl-butyric acid methyl ester] | 50 to 75% | 
20 | CC(C)C[C@H](NC(=O)c1cc(-c2ccc(NC(=O)NC3CCCCC3)cc2)no1)C(=O)O [Example 83, (S)-2-({3-[4-(3-cyclohexyl-ureido)-phenyl]-isoxazole-5-carbonyl}-amino)-4-methyl-pentanoic acid] | 50 to 75% | 
21 | COC(=O)[C@H](CO)NC(=O)c1cc(-c2ccc(Nc3nc4ccc(F)cc4s3)cc2)no1 [Example 9, (S)-2-({3-[4-(6-Fluoro-benzothiazol-2-ylamino)-phenyl]-isoxazole-5-carbonyl}-amino)-3-hydroxy-propionic acid methyl ester] | 0 to 50% | 
